These results are taken from ChEMBL document CHEMBL1158124, “Engineering of the spinosyn PKS: directing starter unit incorporation” (2006).

Values after ≈ are worked out from the molar mass of the structure shown.

Type in all cases: functional
For one experiment, the system named is Aphis gossypii. Kind of experiment: Insecticidal activity against cotton aphid assessed as count of nonwinged stage live aphid after 72 hrs with 24 hrs of photoperiod prior to grading.
In the next experiment the test system is Myzus persicae. Kind of experiment: Insecticidal activity against green peach aphid assessed as count of nonwinged stage live aphid after 72 hrs with 24 hrs of photoperiod prior to grading.
The next experiment deals with Bemisia tabaci. The experiment in a line: Insecticidal activity against sweet potato whitefly assessed as larval survival after 13 days. Conditions: 312 h.
Another experiment concerns Tetranychus urticae. The experiment in a line: Insecticidal activity against two-spotted spinder mites assessed as count of live mites after 4 days with low light condition. Conditions: 96 h.
The test system of a further experiment is Heliothis virescens. The experiment in a line: Insecticidal activity against tobacco budworm assessed per larva.
The test system of a further experiment is Spodoptera exigua. The experiment in a line: Insecticidal activity against beet armyworm assessed as mortality per larva after 5 days.
In the next experiment the test system is Trichoplusia ni. Kind of experiment: Insecticidal activity against cabbage looper assessed as mortality per larva after 5 days.

As for `CO[C@@H]1[C@@H](OC)[C@H](C)O[C@@H](O[C@H]2C[C@H]3[C@@H]4C=C5C(=O)[C@H](C)[C@@H](O[C@H]6CC[C@H](N(C)C)[C@@H](C)O6)CCC[C@H](C)OC(=O)C[C@H]5[C@@H]4C=C[C@@H]3C2)[C@@H]1OC` [SPINOSYN E], the LC50 is more than 50 µg/mL in the experiment on Aphis gossypii, more than 50 µg/mL with Myzus persicae, 3.9 µg/mL (≈ 5.43 µM) in the experiment with Bemisia tabaci and 10 µg/mL (≈ 13.9 µM) with Tetranychus urticae.

For `CO[C@@H]1[C@@H](OC)[C@H](C)O[C@@H](O[C@H]2C[C@H]3[C@@H]4C=C5C(=O)[C@H](C)[C@@H](O[C@H]6CC[C@H](N(C)C)[C@@H](C)O6)CCC[C@H](C6CC6)OC(=O)C[C@H]5[C@@H]4C=C[C@@H]3C2)[C@@H]1OC` [21-DESETHYL-21-CYCLOPROPYLSPINOSYNS A], the LC50 in the experiment with Aphis gossypii is 46 µg/mL (≈ 61.8 µM); with Myzus persicae it was more than 50 µg/mL; in the experiment on Bemisia tabaci, more than 50 µg/mL; with Heliothis virescens, 0.125 µg; with Spodoptera exigua, 1 µg; with Trichoplusia ni it was 0.157 µg. In addition, the LC50 in the experiment with Tetranychus urticae is more than 50 µg/mL.

On to `CC[C@H]1CCC[C@H](O[C@H]2CC[C@H](N(C)C)[C@@H](C)O2)[C@@H](C)C(=O)C2=C[C@@H]3[C@@H](C=C[C@@H]4C[C@@H](O[C@@H]5O[C@@H](C)[C@H](OC)[C@@H](OC)[C@H]5OC)C[C@@H]34)[C@@H]2CC(=O)O1` [SPINOSYN A], for which the LC50 worked out at 65 µg/mL (≈ 88.8 µM) with Aphis gossypii; 50 µg/mL (≈ 68.3 µM) with Myzus persicae; 20 µg/mL (≈ 27.3 µM) with Bemisia tabaci; 0.03 µg in the experiment on Heliothis virescens; 0.63 µg in the experiment on Spodoptera exigua; 0.03 µg in the experiment on Trichoplusia ni. Moreover, in the experiment on Tetranychus urticae, the LC50 was 5.3 µg/mL (≈ 7.24 µM).

For the molecule `CCC[C@H]1CCC[C@H](O[C@H]2CC[C@H](N(C)C)[C@@H](C)O2)[C@@H](C)C(=O)C2=C[C@@H]3[C@@H](C=C[C@@H]4C[C@@H](O[C@@H]5O[C@@H](C)[C@H](OC)[C@@H](OC)[C@H]5OC)C[C@@H]34)[C@@H]2CC(=O)O1` [21-DESETHYL-21-N-PROPYLSPINOSYN A], the LC50 is 27.3 µg/mL (≈ 36.6 µM) in the experiment on Aphis gossypii; more than 50 µg/mL with Myzus persicae; more than 50 µg/mL with Bemisia tabaci; 0.025 µg in the experiment with Heliothis virescens; 0.031 µg with Spodoptera exigua; 0.004 µg in the experiment on Trichoplusia ni. For the same molecule, the LC50 with Tetranychus urticae was less than 50 µg/mL.

Consider `CO[C@@H]1[C@@H](OC)[C@H](C)O[C@@H](O[C@@H]2C[C@H]3CC[C@@H]4[C@@H](C=C5C(=O)[C@H](C)[C@@H](O[C@H]6CC[C@H](N(C)C)[C@@H](C)O6)CCC[C@H](C6CCC6)OC(=O)C[C@H]54)[C@@H]3C2)[C@@H]1OC` [5,6-DIHYDRO-21-DESETHYL-21-CYCLOBUTYLSPINOSYN A], for which the LC50 is 1.7 µg/mL (≈ 2.24 µM) in the experiment on Aphis gossypii; more than 50 µg/mL in the experiment on Myzus persicae; 0.7 µg/mL (≈ 0.921 µM) in the experiment with Bemisia tabaci; 0.02 µg in the experiment on Heliothis virescens; 0.134 µg with Spodoptera exigua; 0.013 µg with Trichoplusia ni.

Consider `CO[C@@H]1[C@@H](OC)[C@H](C)O[C@@H](O[C@H]2C[C@H]3[C@@H]4C=C5C(=O)[C@H](C)[C@@H](O[C@H]6CC[C@H](N(C)C)[C@@H](C)O6)CCC[C@H](C6CCC6)OC(=O)C[C@H]5[C@@H]4C=C(C)[C@@H]3C2)[C@@H]1OC`, for which the LC50 in the experiment with Aphis gossypii was 15 µg/mL (≈ 19.4 µM); with Myzus persicae, more than 50 µg/mL; with Bemisia tabaci, 13.5 µg/mL (≈ 17.5 µM); in the experiment on Heliothis virescens it was 0.016 µg; with Spodoptera exigua, 0.385 µg; with Trichoplusia ni, 0.01 µg.

`CO[C@@H]1[C@@H](OC)[C@H](C)O[C@@H](O[C@H]2C[C@H]3[C@@H]4C=C5C(=O)[C@H](C)[C@@H](O[C@H]6CC[C@H](N(C)C)[C@@H](C)O6)CCC[C@H](C(C)C)OC(=O)C[C@H]5[C@@H]4C=C[C@@H]3C2)[C@@H]1OC` [21-DESETHYL-21-ISOPROPYLSPINOSYN A]: the LC50 with Heliothis virescens came to 0.02 µg; with Spodoptera exigua, 0.123 µg; with Trichoplusia ni it was 0.022 µg.

With `CC[C@H]1CCC[C@H](O[C@H]2CC[C@H](N(C)C)[C@@H](C)O2)[C@@H](C)C(=O)C2=C[C@@H]3[C@@H](C=C(C)[C@@H]4C[C@@H](O[C@@H]5O[C@@H](C)[C@H](OC)[C@@H](OC)[C@H]5OC)C[C@@H]34)[C@@H]2CC(=O)O1` [SPINOSYN D], the LC50 came out at 50 µg/mL (≈ 67 µM) in the experiment with Aphis gossypii, 50 µg/mL (≈ 67 µM) with Myzus persicae, 1.7 µg/mL (≈ 2.28 µM) with Bemisia tabaci and 19 µg/mL (≈ 25.5 µM) in the experiment on Tetranychus urticae.

Regarding `CO[C@@H]1[C@@H](OC)[C@H](C)O[C@@H](O[C@H]2C[C@H]3[C@@H]4C=C5C(=O)[C@H](C)[C@@H](O[C@H]6CC[C@H](N(C)C)[C@@H](C)O6)CCC[C@H](C6CCC6)OC(=O)C[C@H]5[C@@H]4C=C[C@@H]3C2)[C@@H]1OC` [21-DESETHYL-21-CYCLOBUTYLSPINOSYNS A], the LC50 is 3 µg/mL (≈ 3.96 µM) in the experiment on Aphis gossypii; more than 50 µg/mL in the experiment on Myzus persicae; 55 µg/mL (≈ 72.6 µM) in the experiment with Bemisia tabaci; 0.013 µg in the experiment on Heliothis virescens; more than 1 µg with Spodoptera exigua; 0.124 µg in the experiment on Trichoplusia ni. In addition, the LC50 in the experiment with Tetranychus urticae was more than 50 µg/mL.
